What all share (format): cell-based
One experiment relates to HEC-151 cells. Nature of the experiment: CellTiter-Glo viability/proliferation assay, growth of HEC-151 TP53 WT endometrial cancer cells. To be noted: 144 h, 6-day incubation. As for the experimental part: (§1) The effect of MDM2 inhibitor compound of Formula (I) on growth of a p53 wild-type (TP53 WT) endometrial cancer cell line was assessed in HEC-151 cells, HEC-265 cells, and HEC-108 cells as described below.
(§2) Test and Control Article Preparation: A stock solution for Formula (I) was created by dissolving the compound in 100% DMSO to a concentration of 10 mM which was stored at −20 °C. Working solutions ranging from 0.04 μM to 10 μM to generate a 10-point dilution series were prepared by diluting the stock solution in culture media specific to each cell line (cell line assay media). Final concentrations of DMSO were kept constant at 0.1% to maintain cell viability. […]
(§3) Treatment of Cells for Proliferation Assay: Cells were counted (Countess III automated cell counter, Thermo Fisher Scientific) using a cell viability imaging kit (Thermo Fisher Scientific; cat #R37609). […]
(§4) On Day 0 prior treatment, and after the treatment period, the number of viable cells were measured using the CellTiter-Glo® Luminescent Cell Viability Assay (Promega) according to manufacturer instructions. The luminescence for each treatment condition was normalized to the DMSO control as a percent of control. Dose response curves were generated and EC50s and EC90s were determined based on percent of DMSO control. […]
(In general: Cellular ATP, detected with luciferase, serves as a proxy for viable cell number.)

The subject of a further experiment is HEC-265 cells. Nature of the experiment: CellTiter-Glo viability/proliferation assay, growth of HEC-265 TP53 WT endometrial cancer cells. Particulars: 144 h, 6-day incubation. As for the experimental part:
as §1, §2, §3, §4

In the next experiment the test system is HEC-108 cells. The experiment is described as follows: CellTiter-Glo viability/proliferation assay, growth of HEC-108 TP53 WT endometrial cancer cells. As for the experimental part: as §1, §2, §3, §4
Experiment [1] concerns p53 wild-type (TP53 WT) endometrial cancer cell line. The experiment is described as follows: Inhibition of endometrial cancer cell growth (overall result, FIG. 1). To be noted: at clinically relevant doses; results shown in FIG. 1. On the procedure:
as §1, §2, §3, §4

Setting [2] is: read-out: Near complete growth inhibition (EC90).

For `CC(C)[C@@H](CS(=O)(=O)C(C)C)N1C(=O)[C@@](C)(CC(=O)O)C[C@H](c2cccc(Cl)c2)[C@H]1c1ccc(Cl)cc1` [Formula (I), 2-((3R,5R,6S)-5-(3-chlorophenyl)-6-(4-chlorophenyl)-1-((S)-1-(isopropylsulfonyl)-3-methylbutan-2-yl)-3-methyl-2-oxopiperidin-3-yl) acetic Acid], the figures for the EC50 in the experiment on HEC-151 cells (percent of DMSO control) and with HEC-265 cells (percent of DMSO control) were 400 nM and 600 nM, respectively. Also, the EC90 with HEC-151 cells (setting [2]) and with HEC-265 cells (setting [2]) was 700 nM throughout. In addition, the “growth inhibition (200-point scale: 0 uninhibited growth, 100 cell stasis, 200 complete cell killing)” value with HEC-108 cells (at 10 μM, 6-day exposure) is reported as “only nearly reached cell stasis”. The cell killing sensitivity entry with HEC-108 cells (compared with HEC-151 and HEC-265, 6-day exposure) is reported as “less sensitive”. Moreover, the growth inhibition result in experiment [1] is “growth inhibition by the compound of Formula (I) at clinically relevant doses”.

A word on the EC50: it is the midpoint of the concentration-response curve. By EC90 is commonly meant the concentration needed for an effect of 90%.

(Values after patent US20260355170A1, “Treatment of Endometrial Cancer with MDM2 Inhibitors” (Kartos Therapeutics, Inc., priority 2023, published 2026).)
